Key:
[1] = target: Coagulation factor X (Homo sapiens, UniProt P00742)
Description: Inhibition of activated Coagulation factor X

[2] = target: Prothrombin (Homo sapiens, UniProt P00734)
[3] = target: Serine protease 1 (Homo sapiens, UniProt P07477)
[4] = Half life time in human plasma; format: ADME, cell-free

Sequence of Serine protease 1 (P07477 whole entry): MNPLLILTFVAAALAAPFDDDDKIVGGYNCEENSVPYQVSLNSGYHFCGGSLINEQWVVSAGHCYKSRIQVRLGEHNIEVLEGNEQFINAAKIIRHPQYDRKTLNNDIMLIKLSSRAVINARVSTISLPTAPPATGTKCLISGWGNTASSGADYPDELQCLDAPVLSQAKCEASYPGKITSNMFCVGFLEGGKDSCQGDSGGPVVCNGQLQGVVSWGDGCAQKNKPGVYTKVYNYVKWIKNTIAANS
Sequence of Coagulation factor X (P00742 41-179 limits assumed): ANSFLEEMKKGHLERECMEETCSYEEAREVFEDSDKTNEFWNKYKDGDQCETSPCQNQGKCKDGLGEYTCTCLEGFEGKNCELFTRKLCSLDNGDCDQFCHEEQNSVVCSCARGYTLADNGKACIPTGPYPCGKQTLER
Sequence of Coagulation factor X (P00742 235-488 limits assumed): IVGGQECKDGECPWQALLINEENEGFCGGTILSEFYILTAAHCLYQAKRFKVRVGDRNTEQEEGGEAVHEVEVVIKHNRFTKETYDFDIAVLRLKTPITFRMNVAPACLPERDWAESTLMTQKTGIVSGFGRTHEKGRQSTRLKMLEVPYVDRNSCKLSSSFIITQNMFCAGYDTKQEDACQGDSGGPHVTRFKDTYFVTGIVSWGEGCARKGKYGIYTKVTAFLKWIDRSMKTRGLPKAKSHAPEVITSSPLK

IC50 [1] | IC50 [2] | IC50 [3] | half-life [4] | SMILES
> 200 µM | 43 µM | > 200 µM |  | COC(=O)CN1C(=O)[C@H](CCCCC(=N)N)[C@H]2c3ccccc3C[C@@H]21
2.2 µM | 0.05 µM | 2.2 µM | 17 h | CCN(CC)C(=O)c1cccc(-c2ccc3c(c2)[C@@H]2[C@@H](CCCCC(=N)N)C(=O)N(C(=O)OC)[C@H]2C3)c1
> 50 µM | 5 µM | > 50 µM |  | CCN(CC)C(=O)c1cccc(-c2ccc3c(c2)[C@@H]2[C@@H](CCCCC(=N)N)C(=O)N(CCCCCc4ccccc4)[C@H]2C3)c1
3.6 µM | 0.66 µM | 0.62 µM |  | CCN(CC)C(=O)c1cccc(-c2ccc3c(c2)C[C@H]2[C@H]3[C@@H](CCCCC(=N)N)C(=O)N2C(=O)OCCCc2ccccc2)c1
26 µM | 5 µM | 8.4 µM |  | CCN(CC)C(=O)c1cccc(-c2ccc3c(c2)C[C@H]2[C@H]3[C@@H](CCCCC(=N)N)C(=O)N2CCCCCc2ccccc2)c1
> 100 µM | 3 µM | > 100 µM |  | CCNC(=O)N1C(=O)[C@H](CCCCC(=N)N)[C@H]2c3cc(-c4cccc(C(=O)N(CC)CC)c4)ccc3C[C@@H]21
20 µM | 3.2 µM | 1.7 µM |  | CCOP(=O)(OCC)N1C(=O)[C@H](CCCCC(=N)N)[C@H]2c3ccc(-c4cccc(C(=O)N(CC)CC)c4)cc3C[C@@H]21
> 200 µM | > 200 µM | > 200 µM | > 24 h | N=C(N)CCCC[C@H]1C(=O)N[C@H]2Cc3ccccc3[C@@H]21
0.12 µM | 0.016 µM |  | 24 h | CCN(CC)C(=O)c1cccc(-c2ccc3c(c2)C[C@H]2[C@H]3[C@@H](CCCCC(=N)N)C(=O)N2C(=O)OC)c1
> 100 µM | 13 µM | 9.7 µM |  | N=C(N)CCCC[C@H]1C(=O)N(CCCCCc2ccccc2)[C@H]2Cc3ccccc3[C@H]12
14 µM | 12 µM | 36 µM |  | CCN(CC)C(=O)c1cccc(-c2ccc3c(c2)[C@@H]2[C@@H](CCCCC(=N)N)C(=O)N(COC(C)=O)[C@H]2C3)c1
9.9 µM | 0.38 µM | 8.3 µM |  | CCC(=O)N1C(=O)[C@H](CCCCC(=N)N)[C@H]2c3cc(-c4cccc(C(=O)N(CC)CC)c4)ccc3C[C@@H]21
3.7 µM | 0.13 µM | 2.3 µM |  | CCN(CC)C(=O)c1cccc(-c2ccc3c(c2)[C@@H]2[C@@H](CCCCC(=N)N)C(=O)N(C(=O)OCCCc4ccccc4)[C@H]2C3)c1
> 20 µM | 11 µM | > 20 µM |  | CCN(CC)C(=O)c1cccc(-c2ccc3c(c2)[C@@H]2[C@@H](CCCCC(=N)N)C(=O)N(C(=O)N(C)C)[C@H]2C3)c1

SMILES | IC50 [1] | IC50 [2] | IC50 [3] | half-life [4]
CCN(CC)C(=O)c1cccc(-c2ccc3c(c2)[C@@H]2[C@@H](CCCCC(=N)N)C(=O)N(S(=O)(=O)c4ccccc4)[C@H]2C3)c1 | 0.074 µM | 0.016 µM | 0.066 µM | 
CC(=O)O[C@@H]1CC[C@]2(C)C3CC[C@@]4(C)[C@H]5[C@@H](C[C@]4(C)C3=CCC2[C@]1(C)C(=O)O)OC(=O)[C@@H]5CC(=O)C=C(C)C (stereo partly drawn) |  | 4 µM |  | 
